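Method: 48-hour compound exposure of cells in 96-well plates, five concentrations, linear interpolation of endpoints. TGI: concentration producing complete growth inhibition.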
Columns and labels:
Experiment in all cases: NCI anticancer screen, dose series, 48 h
[1] = test system: 786-0 renal
[2] = test system: A498 renal
[3] = test system: A549 NSCLC
[4] = test system: CCRF-CEM leukemia
[5] = test system: DU-145 prostate
[6] = test system: EKVX NSCLC
[7] = test system: HOP-92 NSCLC
[8] = test system: IGROV1 ovarian
[9] = test system: NCI-H226 lung
[10] = test system: NCI-H460 lung
[11] = test system: OVCAR-3 ovarian
[12] = test system: OVCAR-8 ovarian
[13] = test system: SF-539 CNS
[14] = test system: SK-MEL-2 melanoma
[15] = test system: SK-MEL-28 melanoma
[16] = test system: SK-MEL-5 melanoma
[17] = test system: SNB-75 CNS
[18] = test system: TK-10 renal
[19] = test system: UACC-257 melanoma

Row | SMILES | TGI [1] [µM] | TGI [2] [µM] | TGI [3] [µM] | TGI [4] [µM] | TGI [5] [µM] | TGI [6] [µM] | TGI [7] [µM] | TGI [8] [µM] | TGI [9] [µM] | TGI [10] [µM] | TGI [11] [µM] | TGI [12] [µM] | TGI [13] [µM] | TGI [14] [µM] | TGI [15] [µM] | TGI [16] [µM] | TGI [17] [µM] | TGI [18] [µM] | TGI [19] [µM]
1 | CN(C)NC1=NS(=O)(=O)c2cc3c(cc2S1)N(N(C)C)C(=O)c1cc2c(cc1N(N(C)C)C3=O)SC(NN(C)C)=NS2(=O)=O | > 10 | > 10 | > 10 | > 10 | > 10 | > 10 | > 10 | > 10 | > 10 | > 10 | > 10 | > 10 | > 10 | > 10 | > 10 | > 10 | > 10 | > 10 | > 10
2 | [N-]=[N+]=C(C(=O)OCC#CCOC(=O)C(=[N+]=[N-])S(=O)(=O)c1ccccc1)S(=O)(=O)c1ccccc1 | > 10 | > 10 | > 10 | > 10 | > 10 | > 10 | > 10 | > 10 | > 10 | > 10 | > 10 | > 10 | > 10 | > 10 | > 10 | > 10 | > 10 | > 10 | > 10
3 | [N-]=[N+]=NC1=NNC2(C(=O)N1)c1ccccc1-c1ccccc12 | > 100 | > 100 | > 100 | > 100 | > 100 | > 100 | > 100 | > 100 | > 100 | > 100 | > 100 | > 100 | > 100 | > 100 | > 100 | > 100 | > 100 | > 100 | > 100
4 | O=c1[nH]nc(-c2ccc([N+](=O)[O-])cc2)n1/N=C/c1ccc([N+](=O)[O-])cc1 | > 100 | > 100 | > 100 | > 100 | > 100 | > 100 | > 100 | > 100 | > 100 | > 100 | > 100 | > 100 | > 100 | > 100 | > 100 | > 100 | > 100 | > 100 | > 100
5 | CC(=O)OC(CC(C)C)P1(=O)N(CC(C)(C)C)[C@@H]2CCCC[C@H]2N1CC(C)(C)C (stereo partly drawn) | 23.9 | 19.3 | 18 | > 93.3 | 29.4 | 23.5 | 10.7 | 24.2 | 23.2 | 22 | 23.1 | 21.9 | 22.3 | 19.6 | 28.6 | 21.9 | 20.6 | 24.7 | 21.4
6 | O=C(CCCC1Cc2ccccc2C1=O)c1ccccc1 (stereo not drawn) | > 100 | > 100 | > 100 | > 100 | > 100 | > 100 | > 100 | > 100 | > 100 | > 100 | > 100 | > 100 | > 100 | > 100 | > 100 | > 100 | > 100 | > 100 | > 100
7 | COc1ccc(C2c3cc4c(cc3OC(NNC(N)=O)C2C)OCO4)cc1 (stereo not drawn) | 37.5 | 8.59 | > 100 | > 29.4 | > 100 | > 100 | 78.7 | > 100 | > 76.2 | 98.9 | 14.3 | > 57.9 | 4.86 | > 100 | > 100 | > 63.2 | > 33.3 | > 100 | > 100
8 | Cc1c(C#N)c2nnn(-c3ccc([N+](=O)[O-])cc3)c(=O)n2c1-c1ccccc1 | 26.6 | 29.5 | > 100 | > 100 | 26.1 | 32 | 31.4 | 33.6 | 26.9 | 26.5 | 10 | 25.7 | 28.1 | 22 | 79.7 | 25.2 | 39.7 | > 100 | 47.6
9 | CN(C)c1ccc(/C=N/n2c(-c3ccccc3)nc3ccccc3c2=O)cc1 | > 100 | > 100 | > 100 | > 100 | > 100 | > 100 | > 100 | > 100 | > 100 | > 100 | > 100 | > 100 | > 100 | > 100 | > 100 | > 100 | > 100 | > 100 | > 100
10 | Cc1c(C)c2c(c(N)c1C#N)C(=O)N(OS(=O)(=O)c1ccccc1)C2=O | 30.3 | > 100 | 32.1 | > 100 | 64.3 | 37.4 | 35.2 | 37.7 | 43.3 | > 100 | 59.8 | 38.6 | 34.2 | > 100 | 67.3 | > 100 | > 100 | 37.2 | 68
11 | c1ccc2c(c1)nc1n2CCNC1 | > 100 | > 100 | > 100 | > 100 | > 100 | > 100 | > 100 | > 100 | > 100 | > 100 | > 100 | > 100 | > 100 | > 100 | > 100 | > 100 | > 100 | > 100 | > 100
12 | COc1ccc(-c2cc(C3CC3)nc(SCC(=O)O)c2C#N)cc1 | > 100 | > 100 | > 100 | > 100 | > 100 | > 100 | > 100 | > 100 | > 100 | > 100 | > 100 | > 100 | > 100 | > 100 | > 100 | > 100 | > 100 | > 100 | > 100

From PubChem BioAssay (NCI)
